# Measured values published in patent publication US20140286892A1, “USE OF A COMPOUND COMPRISING AT LEAST ONE NUCLEOPHILIC FUNCTION FOR CAPTURING CARBONYL COMPOUNDS RESULTING FROM THE REACTION BETWEEN ONE OR MORE COMPOUNDS CONSTITUTING SEBUM AND OZONE” (L'OREAL, priority 2011, published 2014).
# Assay: Capture of nonanal applied to skin after treatment with the cosmetic composition
# Assay type: in vivo
# Conditions: composition with 10% by weight APTES, pH 9 (lactic acid), 4 mg per cm^2 on skin, left to dry, then nonanal applied
# Experimental: A cosmetic composition containing 10% by weight of APTES sold under the name Dow Corning is prepared. The pH of the composition is brought to 9 by adding lactic acid. The cosmetic composition is then applied to the skin in a proportion of 4 mg per cm^2 over the whole of the body, and then left to dry. Nonanal, which is an aldehyde that can be formed following the action of ozone on sebum, is then applied to the skin. An aqueous cosmetic composition containing 1.4% by weight of active materials of a vinylformamide/vinylformamine copolymer sold under the name Lupamine 9030 by the company BASF is prepared. It is applied to the skin in a proportion of 4 mg per cm^2 over the whole of the body, and then left to dry. Nonanal, which is a compound structurally close to those which are formed following the action of ozone on sebum, is then applied to the skin.
smiles,measurement,value
"CCO[Si](CCCN)(OCC)OCC [APTES, γ-aminopropyltriethoxysilane]",trapping of nonanal in the skin,trapped
